Data set [1] has as its target T1, porcine kidney diamine oxidase (Sus scrofa, UniProt Q9TRC7).
T1 sequence (Q9TRC7 25-755): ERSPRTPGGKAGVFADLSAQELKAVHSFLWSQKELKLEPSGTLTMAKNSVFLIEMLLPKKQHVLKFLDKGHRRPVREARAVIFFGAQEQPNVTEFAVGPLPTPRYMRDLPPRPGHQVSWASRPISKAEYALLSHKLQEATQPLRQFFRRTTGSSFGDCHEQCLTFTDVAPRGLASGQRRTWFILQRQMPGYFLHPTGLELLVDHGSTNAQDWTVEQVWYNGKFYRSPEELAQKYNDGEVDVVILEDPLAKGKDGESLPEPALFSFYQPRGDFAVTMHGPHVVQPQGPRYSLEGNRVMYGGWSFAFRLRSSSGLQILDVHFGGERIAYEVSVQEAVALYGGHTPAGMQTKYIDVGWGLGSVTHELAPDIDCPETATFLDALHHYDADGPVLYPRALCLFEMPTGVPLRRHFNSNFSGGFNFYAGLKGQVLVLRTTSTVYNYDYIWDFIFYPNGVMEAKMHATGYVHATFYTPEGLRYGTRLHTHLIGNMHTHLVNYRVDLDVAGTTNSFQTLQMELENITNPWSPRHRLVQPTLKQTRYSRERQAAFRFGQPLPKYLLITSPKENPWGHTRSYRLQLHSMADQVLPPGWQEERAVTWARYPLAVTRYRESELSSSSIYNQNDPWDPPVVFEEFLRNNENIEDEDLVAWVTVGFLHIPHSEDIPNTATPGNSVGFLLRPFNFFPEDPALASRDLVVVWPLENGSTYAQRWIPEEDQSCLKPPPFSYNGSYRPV
Briefly: Diamine oxidase spectrophotometric assay with putrescine as substrate. The format is biochemical.

The conditions of data set [2]: after a therapeutic dose; cited from earlier work.
A further data set has as its target diamine oxidase. The conditions noted are these: read-out: Ki for diamine oxidase; cited from earlier work.
The subject of a further data set is porcine diamine oxidase. The following applies: read-out: reported KM of putrescine; cited from earlier work.
Substrate in data set [3]: NCCCCN
Briefly: purified protein, by the assay type. The following applies: other: porcine DAO; pH 7.0; 37.0 °C.

Consider `N=C(N)NN` [aminoguanidine], for which the “% inhibition of porcine DAO” value in data set [1] (inhibitor 100 μM, putrescine 100 μM as substrate) is “greater than 80%”. In the case of `CN(C)C(=N)N=C(N)N` [metformin, Metformin], in data set [1], the Ki is 8.6 ± 3.1 mM. Moreover, the “type of DAO inhibition” value in data set [1] (porcine DAO) is “mixed-type inhibition”. For the same molecule, the “predicted concentration in the intestinal lumen” value in data set [2] is 10 to 20 mM. Take `[H]/N=C(/N)N/C(=N/[H])NCCc1ccccc1` [phenformin]: the Ki at diamine oxidase was 4 mM. For `NCCCCN` [putrescine], the Km with porcine diamine oxidase was 350 µM.

B1: porcine kidney diamine oxidase (Sus scrofa) (protein)
chain: T1 sequence (Q9TRC7 25-755)
Regarding B1, in data set [3], the Km worked out at 330 ± 160 µM.

(Values after PMC4656030 (Journal of pharmacokinetics and pharmacodynamics, 2015).)
